Measured values from the Deep4Chem optical property database.
Values belong to the molecule of their own block, whether it stands above or below them.

Assay: solvent given as SMILES
[1] = in O=P(c1ccccc1)(c1ccccc1)c1ccccc1Oc1ccccc1P(=O)(c1ccccc1)c1ccccc1

Compound: O=C1c2ccccc2-c2ccc(N3CCN(c4ccccc4)CC3)c3cccc1c23
- emission maximum (in C1CCCCC1): 529 nm
- emission maximum (in C1CCOC1): 583 nm
- emission maximum (in C1COCCO1): 578 nm
- emission maximum (in CC1COC(=O)O1): 614 nm
- emission maximum (in CC#N): 603 nm
- emission maximum (in CC(C)=O): 601 nm
- emission maximum (in CCCCCCCCO): 590 nm
- emission maximum (in CCCCCO): 586 nm
- emission maximum (in CCCCO): 581 nm
- emission maximum (in CCCO): 586 nm
- emission maximum (in CCO): 589 nm
- emission maximum (in CCOC(C)=O): 587 nm
- emission maximum (in CN(C)C=O): 602 nm
- emission maximum (in CO): 577 nm
- emission maximum (in CS(C)=O): 613 nm
- emission maximum (in Cc1ccccc1): 562 nm
- emission maximum (in ClC(Cl)Cl): 591 nm

Compound: CCCN(c1ccccc1)c1ccc2c(c1)C(CC)(CC)c1cc(/C=C/c3ccc(/C=C(\C#N)C(=O)O)s3)ccc1-2
- emission maximum (in C1CCOC1): 572 nm
- emission maximum (in C1COCCO1): 617 nm
- emission maximum (in CC#N): 531 nm
- emission maximum (in CC(C)=O): 575 nm
- emission maximum (in CCOC(C)=O): 552 nm
- emission maximum (in CN(C)C=O): 593 nm
- emission maximum (in CS(C)=O): 514 nm
- emission maximum (in ClCCl): 600 nm

- emission maximum (in ClCCl): 463 nm
Compound: c1ccc2c(c1)OP1(=NP3(=NP(Oc4ccc5ccc6cccc7ccc4c5c67)(Oc4ccc5ccc6cccc7ccc4c5c67)=N1)Oc1ccccc1-c1ccccc1O3)Oc1ccccc1-2

- emission maximum (in ClCCl): 530 nm
Compound: C(=C\c1ncccn1)/c1ccc(-c2ccc(N(c3ccccc3)c3ccccc3)cc2)cc1

- emission maximum (in C1CCOC1): 456 nm
Compound: N#Cc1ccc(/C=C/c2ccc(C=C(c3ccccc3)c3ccccc3)cc2)cc1

- emission maximum (in ClCCl): 495 nm
Compound: C(=C\c1cc(-c2ccccc2)c(/C=C/c2ccc(N(c3ccccc3)c3ccccc3)cc2)cc1-c1ccccc1)/c1ccc(N(c2ccccc2)c2ccccc2)cc1

Compound: Cn1c(/C=C/c2ccc(/C=C/c3nc4ccccc4[nH]3)cc2)[n+](C)c2ccccc21
- emission maximum (in C1CCOC1): 576 nm
- emission maximum (in CC#N): 576 nm
- emission maximum (in CC(C)=O): 580 nm
- emission maximum (in CN(C)C=O): 582 nm
- emission maximum (in CO): 567 nm
- emission maximum (in CS(C)=O): 584 nm
- emission maximum (in O): 574 nm

- emission maximum (in CCO): 644 nm
- emission maximum (in O): 652 nm
Compound: CC/[NH+]=c1\cc2oc3cc(NCCC(=O)O)c4ccccc4c3nc-2cc1C

Compound: CC1CC=C(c2ccc(-c3ccc(C=O)s3)s2)CC1 (configuration not stated)
- emission maximum (in C1CCOC1): 467 nm
- emission maximum (in CC#N): 482 nm
- emission maximum (in CCCCCC): 445 nm
- emission maximum (in CCO): 500 nm
- emission maximum (in OCCOCCO): 508 nm
- emission maximum (in c1ccncc1): 483 nm

- emission maximum (in CC#N): 436 nm
- emission maximum (in CCCCCC): 378 nm
Compound: C(=C\c1ccc(Nc2ccccc2)cc1)/c1ccccc1

Compound: O=C(/C=C/c1cn(-c2ccccc2)nc1-c1ccccc1)c1c(O)c2ccccc2oc1=O
- emission maximum (in C1CCOC1): 489 nm
- emission maximum (in C1COCCO1): 482 nm
- emission maximum (in CCO): 507 nm
- emission maximum (in CCOC(C)=O): 487 nm
- emission maximum (in CN(C)C=O): 505 nm
- emission maximum (in CO): 504 nm
- emission maximum (in CS(C)=O): 510 nm
- emission maximum (in Cc1ccccc1): 480 nm
- emission maximum (in ClC(Cl)Cl): 493 nm
- emission maximum (in ClCCl): 502 nm

- emission maximum (in C1CCCCC1): 375 nm
- emission maximum (in CC#N): 375 nm
- emission maximum (in CO): 375 nm
- emission maximum (in ClC(Cl)Cl): 376 nm
Compound: NCc1ccc2ccc3cccc4ccc1c2c34

- emission maximum (in CC#N): 479 nm
- emission maximum (in CO): 496 nm
- emission maximum (in ClCCl): 478 nm
Compound: Cc1cc(O)c(-c2[nH]c(=O)n3c2-c2ccccc2C3=O)cc1Cl

Compound: Cc1cc(-c2ccc(-c3ccccc3)cc2)nc(-c2ccc(-n3c4ccccc4c4ccccc43)cc2)n1
- emission maximum (in C1CCOC1): 418 nm
- emission maximum (in CN(C)C=O): 474 nm
- emission maximum (in Cc1ccccc1): 386 nm
- emission maximum (in ClC(Cl)Cl): 416 nm

Compound: COc1ccc(C2=CC(c3ccc4cc(N(C)C)ccc4c3)=[O+][B-](F)(F)O2)cc1
- emission maximum (in C1CCOC1): 618 nm
- emission maximum (in CC#N): 681 nm
- emission maximum (in CC(C)=O): 660 nm
- emission maximum (in CS(C)=O): 698 nm
- emission maximum (in Cc1ccccc1): 555 nm
- emission maximum (in ClC(Cl)Cl): 596 nm
- emission maximum (in ClCCl): 631 nm

- emission maximum (in C1CCCCC1): 430 nm
- emission maximum (in C1CCOC1): 434 nm
- emission maximum (in C1COCCO1): 432 nm
- emission maximum (in CC#N): 398 nm
- emission maximum (in CCOC(C)=O): 434 nm
- emission maximum (in CN(C)C=O): 386 nm
- emission maximum (in CO): 390 nm
- emission maximum (in ClC(Cl)Cl): 450 nm
Compound: O=C(O)c1ccccc1Nc1ccccc1

Compound: O=P(c1ccccc1)(c1ccccc1)n1c2ccccc2c2ccccc21
- emission maximum (in C1CCOC1): 360 nm
- emission maximum (in CC(C)=O): 406 nm
- emission maximum (in Cc1ccccc1): 372 nm
- emission maximum (in ClCCl): 355 nm

- emission maximum (in ClC(Cl)Cl): 475 nm
Compound: C(#Cc1ccccc1)C(C#Cc1ccccc1)=Cc1ccc(C=C(C#Cc2ccccc2)C#Cc2ccccc2)cc1

- emission maximum (in C1CCCCC1): 509 nm
- emission maximum (in C1CCOC1): 553 nm
- emission maximum (in CC#N): 565 nm
- emission maximum (in ClC(Cl)Cl): 536 nm
- emission maximum (in c1ccccc1): 539 nm
Compound: Cc1cc(C)c(B(c2c(C)cc(C)cc2C)c2cc3cc(N(C)C)c4ccccc4c3c3c2ccc2ccccc23)c(C)c1

- emission maximum (in ClCCl): 765 nm
Compound: CCCCCCOc1cc(/C=C/c2cc(OCCCCCC)c(/C=C/c3cc(OCCCCCC)c(/C=C4\C(=O)c5ccccc5C4=C(C#N)C#N)cc3OCCCCCC)cc2OCCCCCC)c(OCCCCCC)cc1/C=C1\C(=O)c2ccccc2C1=C(C#N)C#N

- emission maximum (in ClC(Cl)Cl): 478.2 nm
Compound: COc1ccc(C2=Cc3c4ccccc4cc[n+]3[B-](F)(F)O2)cc1

Compound: CC1(C)c2ccccc2N(c2ccccc2)c2ccc(-c3ccc(S(=O)(=O)c4ccc(-c5ccc6c(c5)C(C)(C)c5ccccc5N6c5ccccc5)cc4)cc3)cc21
- emission maximum (in Cc1ccccc1): 419.03 nm
- emission maximum [1]: 439 nm

Compound: S=P1(c2ccccc2)c2cccc3ccc4ccc1n4c23 (configuration not stated)
- emission maximum (in ClCCl): 490 nm

Compound: Nc1cccc2cc3ccccc3cc12
- emission maximum (in C1CCCCC1): 487.09 nm

- emission maximum (in O): 520 nm
Compound: CC[n+]1c(-c2ccccc2)c2cc(NC(N)=O)ccc2c2ccc(NC(N)=O)cc21

- emission maximum (in C1COCCO1): 436 nm
- emission maximum (in CC#N): 492 nm
- emission maximum (in CCCCCCC): 382 nm
- emission maximum (in CO): 496 nm
Compound: C(/C=C/c1ccc(-n2c3ccccc3c3ccccc32)cc1)=C\c1ccncc1

- emission maximum (in CC#N): 438 nm
Compound: O=C1O/C(=C\c2cccs2)c2ccccc21

- emission maximum (in C1CCCCC1): 380 nm
- emission maximum (in CO): 385 nm
Compound: Clc1ccc(/C=C/c2nc3ccccc3o2)cc1

- emission maximum (in ClCCl): 426 nm
Compound: CCOC(=O)c1c(-c2cc3ccc(OCC=C(C)C)cc3oc2=O)nn(-c2cccc(Cl)c2)c1C(=O)OCC

Compound: CCNc1ccc(NCC)c2c1C(=O)c1ccccc1C2=O
- emission maximum (in C1CCCCC1): 670 nm
- emission maximum (in C1COCCO1): 684 nm
- emission maximum (in CC(C)=O): 671 nm
- emission maximum (in CCCCCCCCCCO): 672 nm
- emission maximum (in CCCCCCCO): 666 nm
- emission maximum (in CCCCCCO): 663 nm
- emission maximum (in CCCCO): 670 nm
- emission maximum (in CCO): 672 nm
- emission maximum (in CN(C)C=O): 680 nm
- emission maximum (in CO): 669 nm
- emission maximum (in CS(C)=O): 672 nm
- emission maximum (in ClC(Cl)(Cl)Cl): 679 nm
- emission maximum (in c1ccccc1): 670 nm

- emission maximum (in CC#N): 473 nm
- emission maximum (in ClCCl): 472 nm
Compound: Cc1cc(O)c(C(=O)/C=C/c2ccc(Cl)cc2Cl)c(=O)o1

Compound: N#Cc1cc(C#N)c(-n2c3ccccc3c3c(-c4cccc5c4c4ccccc4n5-c4cc(-n5c6ccccc6c6ccccc65)c(C#N)cc4C#N)cccc32)cc1-n1c2ccccc2c2ccccc21
- emission maximum [1]: 444 nm

- emission maximum (in ClCCl): 508 nm
Compound: [O-][n+]1c(/C=C/c2ccccc2)nc(Nc2ccccc2)c2c1CCCC2

- emission maximum (in C1COCCO1): 429 nm
- emission maximum (in CC#N): 443 nm
- emission maximum (in CO): 438 nm
Compound: CN(C)c1ccc(/C=C/C=C/C2=NC3C(=O)NC(N)=NC3N2[C@H]2C[C@H](O)[C@@H](CO)O2)cc1 (some centres not stated)
